Experiment: Storage stability test (eye drop in contact with resin containers, 40° C. for 7 days, HPLC)
Type: physicochemical
Settings: eye drop (present compound 0.0005%, polysorbate 80 0.05%, pH about 6), containers of propylene/ethylene random copolymer (98.7/1.3, 97.4/2.6, 96.4/3.6) compared with propylene homopolymer container
Experimental: Hereinafter, the present invention will be described in detail through carrying out a storage stability test (40° C. for 7 days). However, such descriptions are disclosed for the purpose of understanding the present invention better and are not meant to limit the scope of the present invention.
As a typical example of a prostaglandin F2α derivative having at least a fluorine atom in its molecule, 16-phenoxy-15-deoxy-15,15-difluoro-17,18,19,20-tetranor-prostaglandin F2α isopropyl ester (hereinafter, referred to as the “present compound” ) was used. The present compound (0.0005%) and polysorbate 80 (0.05%) were dissolved in purified water, and then, commonly used additives such as disodium edetate (q.s.), concentrated glycerin (q.s.), benzalkonium chloride (q.s.) and the like were added thereto to obtain an eye drop with an osmotic pressure of about 1 and a pH of about 6. […]
The eye drop (110 ml) obtained in the section of “(1) Preparation of Eye Drop” was placed in a glass container and the glass container was heated to 40° C. […] The amount of the present compound contained in the glass container was measured by high performance liquid chromatography before and after the storage, and the content of the present compound (average) was calculated taking the content of the present compound at the time of initiation of storage as 100%.

content of the present compound (average), content at the time of initiation of storage taken as 100%: higher
Structure (SMILES): CC(C)OC(=O)CCC/C=C\C[C@@H]1[C@@H](/C=C/C(F)(F)COc2ccccc2)[C@H](O)C[C@@H]1O [present compound, 16-phenoxy-15-deoxy-15,15-difluoro-17,18,19,20-tetranor-prostaglandin F2α isopropyl ester]
